According to US9340490B2, “Diagnostic agent for tumor” (SBI PHARMACEUTICALS CO., LTD., priority 2004, dated 2016):

What was measured:
[1] = tested on: MH 134 cell (ascitic liver cancer cell) tumor-bearing mice; conditions: female, C3H/He, mouse, in vivo, po
Experimental: A mouse tumor-bearing cell (MH 134 cell: ascitic liver cancer cell) was intraperitoneally administered to mice (C3H/He line, 5-week-old, female) at a dose of 1×10^6 cells, and they were reared for 0 to 14 days. Ten days after the intraperitoneal administration of tumor-bearing cells, 50 μl of 0.12 M δ-aminolevulinic acid hydrochloride, δ-aminolevulinic acid methyl ester hydrochloride, δ-aminolevulinic acid hexyl ester hydrochloride or δ-aminolevulinic acid phosphate was orally administered to the mice to which the tumor-bearing cells had been intraperitoneally administered. From 10 to 20 μl of blood samples were collected from the orally administered mice 0, 0.25, 0.5, 2, 3, 4 or 6 hours thereafter. The thus collected blood was centrifuged at 2000×g for 5 minutes, 300 μl of ethyl acetate/acetic acid (2/1, v/v) was added to 5 μl of the supernatant (plasma), followed by mixing, 300 μl of 0.6 M NaOH solution was further added thereto, followed by mixing, and the NaOH layer was collected. To the remaining organic layer, 300 μl of 0.5 M aqueous hydrochloric acid solution was added, and the aqueous hydrochloric acid solution layer was collected. Fluorescence intensities of the NaOH layer and aqueous hydrochloric acid solution layer were measured (hydrochloric acid layer: excitation wavelength 400 nm, fluorescence wavelength 600 nm, NaOH layer: excitation wavelength 400 nm, fluorescence wavelength 619 nm), and respective concentrations were calculated from the standard solutions. In addition, δ-aminolevulinic acid hydrochloride, δ-aminolevulinic acid methyl ester hydrochloride, δ-aminolevulinic acid hexyl ester hydrochloride or δ-aminolevulinic acid phosphate was also orally administered (0.12 M, 50 μl) to normal mice as the control, and the same treatment was carried out.

normal mice [2] = assay: Blood protoporphyrin IX and uroporphyrin by fluorescence detection after oral administration, normal mice (Example 1); format: in vivo; conditions: 2 hours after oral 50 μl of 0.12 M
normal nude mice = assay: Uroporphyrin and coproporphyrin in urine by HPLC, normal nude mice (Example 5); format: in vivo; conditions: 4 hours after oral 50 μl of 0.12 M, corrected per creatinine
Experimental: (§1) The thus collected urine was measured by HPLC (regarding the analyzing conditions, a fluorescence detector: excitation wavelength 406 nm, fluorescence wavelength 619 nm was used,
(§2) A: 80% acetonitrile/7% acetic acid/50 mM ammonium acetate and
(§3) B: 10% acetonitrile/4% acetic acid/50 mM ammonium acetate were used as the eluting solutions and subjected to a linear gradient of A/B (20/80)-A/B (90/10) for 13 minutes and then to elution with solution A for 10 minutes, ODS-AGtypeCAPCELLPAK, 4.6 mm×250 mm, particle diameter 5 μm (manufactured by Shiseido) was used as the column, and the measurement was carried out at a flow rate of 1.0 ml/min and at a temperature of 25° C.), and each concentration was calculated from the standard solutions. Further, the urine concentration was corrected by measuring the amount of creatinine (CRE) in urine, and calculating the amount of porphyrin per CRE.

[3] = tested on: human liver cancer cell (HepG2 cell) tumor-bearing nude mice; assay: Uroporphyrin and coproporphyrin in urine by HPLC, nude mice bearing human liver cancer cells (Example 5); format: in vivo, nude mice (BALB/cA-nu)
Experimental: as §1, §2, §3

[4] = tested on: human cervical cancer cell (HeLa cell) tumor-bearing nude mice; assay: Uroporphyrin and coproporphyrin in urine by HPLC, nude mice bearing human cervical cancer cells (Example 5); format: in vivo, nude mice (BALB/cA-nu)
Experimental: as §1, §2, §3

[5] = tested on: MH 134 cell tumor-bearing mice; assay: Uroporphyrin I and III in blood by HPLC, tumor-bearing mice (Example 2); format: in vivo, mice (C3H/He line); conditions: 2 hours after oral 50 μl of 0.12 M
Experimental: (§4) The samples were measured by HPLC (regarding the analyzing conditions, a fluorescence detector: excitation wavelength 406 nm, fluorescence wavelength 610 nm was used, a solution consisting of 12.5% acetonitrile, 1 M ammonium acetate and 0.27 mM EDTA, pH 5.15 (adjusted with acetic acid), was used as the eluting solution, ODS-AGtypeCAPCELLPAK, 4.6 mmφ×250 mm, particle diameter 5 μm (manufactured by Shiseido) was used as the column, and the measurement was carried out at a flow rate of 1.0 ml/min and at a temperature of 25° C.), and respective concentrations were calculated from the peak areas of standard solutions.

[6] = tested on: MH 134 cell tumor-bearing mice; assay: Uroporphyrin I and III in urine by HPLC, tumor-bearing mice (Example 3); format: in vivo, mice (C3H/He line)
Experimental: as §4, with “The thus collected” for “The”, “619” for “610”, “the” for “the peak areas of”

normal mice [7] = assay: Uroporphyrin I and III in urine by HPLC, normal mice (Example 3); format: in vivo; conditions: 2 hours after oral 50 μl of 0.12 M
Experimental: as §4, with “The thus collected” for “The”, “619” for “610”, “the” for “the peak areas of”

[8] = tested on: MH 134 cell tumor-bearing mice; assay: Uroporphyrin and coproporphyrin in feces by HPLC, tumor-bearing mice (Example 4); format: in vivo, mice (C3H/He line); conditions: 2 hours after oral 50 μl of 0.12 M
Experimental: To 10 mg in wet weight portion of the thus collected feces, 100 μl of an ethyl acetate-acetic acid mixture liquid (4/1, v/v) was added, the mixture was homogenized and then filtered using a filter paper, 10 μl of the filtrate was measured by HPLC (regarding the analyzing conditions, a fluorescence detector: excitation wavelength 406 nm, fluorescence wavelength 619 nm was used, a solution A: 80% acetonitrile/7% acetic acid/50 mM ammonium acetate mixture liquid and a solution B: 10% acetonitrile/4% acetic acid/50 mM ammonium acetate mixture liquid were used as the eluting solutions and subjected to a linear gradient of A/B (20/80)-A/B (90/10) for 30 minutes and then to the holding with solution A for 20 minutes, ODS-AGtypeCAPCELLPAK, 4.6 mmφ×250 mm, particle diameter 5 μm (manufactured by Shiseido) was used as the column, and the measurement was carried out at a flow rate of 1.0 ml/min and at a temperature of 25° C.), and respective concentrations were calculated from the peak areas of standard solutions.

[9] = mice given human liver cancer cells, after administration
[10] = tumor-bearing mice (human liver cancer cell), 4 hours after oral 50 μl of 0.12 M, corrected per creatinine
[11] = mice given human cervical cancer cells, after administration
[12] = tumor-bearing mice (human cervical cancer cell), 4 hours after oral 50 μl of 0.12 M, corrected per creatinine
[13] = tumor-bearing mice, 2 hours after oral 50 μl of 0.12 M

Structure (SMILES): COC(=O)CCC(=O)CN.Cl [δ-aminolevulinic acid methyl ester hydrochloride]
- time after administration at which concentrations of protoporphyrin IX and uroporphyrin became maximum [1]: 2 h
- uroporphyrin in blood of normal mice (normal mice [2]): hardly detected

Structure (SMILES): NCC(=O)CCC(=O)O.O=P(O)(O)O [δ-aminolevulinic acid phosphate]
- time after administration at which concentrations of protoporphyrin IX and uroporphyrin became maximum [1]: 2 h
- uroporphyrin in blood of normal mice (normal mice [2]): hardly detected
- Coproporphyrin in urine, after administration (normal nude mice): 0.99 μmol/g-CRE
- Uroporphyrin in urine, after administration (normal nude mice): 0.16 μmol/g-CRE
- amount of coproporphyrin in urine relative to normal mice [3, 9]: about 1.5 times
- amount of uroporphyrin in urine relative to normal mice [3, 9]: about 15 times
- Coproporphyrin in urine, after administration [3, 10]: 1.44 μmol/g-CRE
- Uroporphyrin in urine, after administration [3, 10]: 2.47 μmol/g-CRE
- amount of coproporphyrin in urine relative to normal mice [4, 11]: about 2.7 times
- amount of uroporphyrin in urine relative to normal mice [4, 11]: about 94 times
- Coproporphyrin in urine, after administration [4, 12]: 2.66 μmol/g-CRE
- Uroporphyrin in urine, after administration [4, 12]: 15.1 μmol/g-CRE

Structure (SMILES): Cl.NCC(=O)CCC(=O)O [δ-aminolevulinic acid hydrochloride]
- time after administration at which concentrations of protoporphyrin IX and uroporphyrin became maximum [1]: 2 h
- uroporphyrin in blood of normal mice (normal mice [2]): hardly detected
- Ratio of uroporphyrin I/uroporphyrin III in blood [5]: 0.53
- Uroporphyrin I in blood, after administration [5]: 0.2 ng/µL
- Uroporphyrin III in blood, after administration [5]: 0.38 ng/µL
- amounts of uroporphyrin I and uroporphyrin III in urine, tumor-bearing mice in comparison with normal mice ([6]; after administration, urine 2 hours): about 13 times
- Ratio of uroporphyrin I/uroporphyrin III in urine [6, 13]: 0.54
- Uroporphyrin I in urine, after administration [6, 13]: 11.95 ng/µL
- Uroporphyrin III in urine, after administration [6, 13]: 22.28 ng/µL
- Ratio of uroporphyrin I/uroporphyrin III in urine (normal mice [7]): 0.94
- Uroporphyrin I in urine, after administration (normal mice [7]): 0.95 ng/µL
- Uroporphyrin III in urine, after administration (normal mice [7]): 1.01 ng/µL
- Coproporphyrin in feces, after administration [8]: 0.21 pmol
- Uroporphyrin in feces, after administration [8]: 1.75 pmol

Structure (SMILES): CCCCCCOC(=O)CCC(=O)CN.Cl [δ-aminolevulinic acid hexyl ester hydrochloride]
- time after administration at which concentrations of protoporphyrin IX and uroporphyrin became maximum [1]: 2 h
- uroporphyrin in blood of normal mice (normal mice [2]): hardly detected
